{"source": "patent US8529907B2", "about": "“Methods of treating ophthalmic disorders” (Nikken Sohonsha Corporation, priority 2008, dated 2013)", "origin": "cited, not measured here", "key": {"[1]": {"test_system": "Rpe65-deficient mice"}, "[2]": {"test_system": "mutant opsin P23H"}, "[3]": {"test_system": "RP patients", "conditions": "15,000 U/d"}}, "data": [{"compound": "CC1=C(/C=C/C(C)=C\\C=C\\C(C)=C\\C=O)C(C)(C)CCC1", "note": "[9-cis-retinal]", "values": [{"measurement": "duration of supported rod retinal function post-treatment", "setting": "[1]; early intervention", "value": "more than 6 months"}, {"measurement": "retinal ester accumulation", "setting": "[1]; early intervention", "value": "significantly attenuated"}, {"measurement": "rod photopigment and rod physiology", "setting": "[1]; oral, within 48 h, Rpe65-deficient mice", "value": "formation of rod photopigment and dramatic improvement in rod physiology"}, {"measurement": "rescue of mutant opsin P23H", "setting": "[2]", "value": "effectively rescued"}]}, {"compound": "CCCCCCCCCCCCCCCC(=O)OC/C=C(C)/C=C/C=C(C)/C=C/C1=C(C)CCCC1(C)C", "note": "[Vitamin A palmitate]", "values": [{"measurement": "slowing of the progress of RP", "setting": "[3]", "value": "about 2 % per year"}]}, {"compound": "CC1=C(/C=C/C(C)=C/C=C/C(C)=C/C=O)C(C)(C)CCC1", "note": "[11-cis-retinal]", "values": [{"measurement": "rescue of mutant opsin P23H", "setting": "[2]", "value": "effectively rescued"}]}]}
